From patent US5980913A, “Peptides having immunomodulatory activity” (Biochem Pharma, Inc., priority 1994, dated 1999)
Where a SMILES comes first, the peptide text is derived from it. [ ]: non-standard residue; d: D form.

How the values were obtained:
P815 target cells = test: Cytotoxic T lymphocytes (CTL) assay, 51Cr release, after 5 days mixed culture with drug; assay type: cell-based, C57BL/6 mice; details: 10^-9 M
From the text: 1. Cytotoxic T Lymphocytes (CTL) Mixed Lymphocyte Reaction (MLR) and Mitogenic Response Assays
The protocols used are described in Hudson L., Haay F., Pratical immunology, 3rd edition, Blackwell, Scientific publications, Oxford 1989, p. 158-162, and p.447.
Lymphocytes were isolated from C57BL/6 mice and DBA/2 mice in accordance to techniques well known in the art. Cell concentration was adjusted to 10×10^6 cell/ml for each assay. The cells isolated from DBA/2 mice were irradiated with 3000 Rads.
In a 6 well plate, each well was set up with:
The cells were incubated for five days at 37° C. in 5% CO2, after which CTL and MLR assays were performed.
a) Cytotoxic T Lymphocytes (CTL)
P815 target cells were labelled with Cr^51 (0.1 mCi). After labelling, the cells were washed three times and resuspended to a concentration of 5×10^4 cells/ml in media. p T cells were then counted and diluted to obtain a concentration of 2.5×10^6 cells/ml, and then further diluted to obtain the following effector:target ratios:
100 μl of target cells+100 μl of CTLs were incubated for 4 hours. In parallel wells, 100 μl of target cells+100 μl of media were incubated for spntaneous release. After incubation, cells were centrifuged and 100 μl of supernatant was then counted using a gamma counter.
Results are expressed as % specific ^51 Cr release= [formula] where ER=experimental release, SR=spontaneous releaase, and
0 represents less than 20%, + represents 20-40%, ++ represents 40-60%, +++ represent 60-80%, and ++++ represents 80% and over.

[1] = system: blood cell subsets (cell surface antigens); test: In vivo/ex vivo immunophenotyping in the blood, mice treated 4 consecutive days, blood taken on day 5; design: species or system C57BL/6 mice
Method: C57BL.backslash.6 mice are treated with 0, 50, 100, 200, and 300 mg/kg of drug (in saline) for 4 consecutive days. Blood is taken by cardiac puncture on day 5, and the lymphocytes are isolated from spleen in the following manner:
1. Immunophenotyping (blood and spleen)
Cell immunophenotyping is performed on blood and spleen. The following cell surface antigens are analyzed:
CD4 (T helper/inducer, binds class II-restricted T cells);
CD8 (cytotoxic T cells, CTL adhesion);
MAC-1 (monocyte/macrophage);
NK (natural killer cells);
CD45 (all leukocytes, protein tyrosine phosphatase).

SMILES: NCCCC[C@@H](N)C(=O)N[C@@H](CC(N)=O)C(=O)N1CCC[C@H]1C(=O)N[C@@H](Cc1ccc(O)cc1)C(=O)O [PEPTIDE #5, H-(D-Lys)-Asn-Pro-Tyr-OH] (H-[dK]NPY-OH)
- CTL, % augmentation compared to IL-2 (IL-2 is 100%) (P815 target cells): ++++ (++++ represents 80% and over)
- change of relative percentage of T cells (TCR, CD4+ and CD8+ cell surface antigen) (in words) [1]: reduced in a significant manner
- CD4+ CD8+ cell subset, relative percentage, MEAN ([1]; 50 mg/kg, first assay): 2.03
- CD4+ CD8- cell subset, relative percentage, MEAN ([1]; 50 mg/kg, first assay): 18.15
- CD4+ CD11b+ cell subset, relative percentage, MEAN ([1]; 50 mg/kg, first assay): 1.18
- CD4+ CD11b- cell subset, relative percentage, MEAN ([1]; 50 mg/kg, first assay): 22.55
- CD4- CD8+ cell subset, relative percentage, MEAN ([1]; 50 mg/kg, first assay): 5.15
- CD4- CD8- cell subset, relative percentage, MEAN ([1]; 50 mg/kg, first assay): 74.68
- CD4- CD11b+ cell subset, relative percentage, MEAN ([1]; 50 mg/kg, first assay): 12.08
- CD4- CD11b- cell subset, relative percentage, MEAN ([1]; 50 mg/kg, first assay): 64.15
- CD45+ CD4+ cell subset, relative percentage, MEAN ([1]; 50 mg/kg, first assay): 17.00
- CD45+ CD4- cell subset, relative percentage, MEAN ([1]; 50 mg/kg, first assay): 57.68
- CD45+ CD8+ cell subset, relative percentage, MEAN ([1]; 50 mg/kg, first assay): 6.53
- CD45+ CD8- cell subset, relative percentage, MEAN ([1]; 50 mg/kg, first assay): 62.48
- CD45- CD4+ cell subset, relative percentage, MEAN ([1]; 50 mg/kg, first assay): 3.15
- CD45- CD4- cell subset, relative percentage, MEAN ([1]; 50 mg/kg, first assay): 22.15
- CD45- CD8- cell subset, relative percentage, MEAN ([1]; 50 mg/kg, first assay): 30.35
- CD45- CDE8+ cell subset, relative percentage, MEAN ([1]; 50 mg/kg, first assay): 0.68
- Ly5(B) cell subset, relative percentage, MEAN ([1]; 50 mg/kg, first assay): 57.88
- NK+ CD3+ cell subset, relative percentage, MEAN ([1]; 50 mg/kg, first assay): 2.13
- NK+ CD3- cell subset, relative percentage, MEAN ([1]; 50 mg/kg, first assay): 5.70
- NK- CD3+ cell subset, relative percentage, MEAN ([1]; 50 mg/kg, first assay): 33.30
- NK- CD3- cell subset, relative percentage, MEAN ([1]; 50 mg/kg, first assay): 58.93
- TCR(T) cell subset, relative percentage, MEAN ([1]; 50 mg/kg, first assay): 31.53
- CD4+ CD8+ cell subset, relative percentage, MEAN ([1]; 50 mg/kg, second assay): 0.43
- CD4+ CD8- cell subset, relative percentage, MEAN ([1]; 50 mg/kg, second assay): 20.65
- CD4+ CD11b+ cell subset, relative percentage, MEAN ([1]; 50 mg/kg, second assay): 0.13
- CD4+ CD11b- cell subset, relative percentage, MEAN ([1]; 50 mg/kg, second assay): 15.38
- CD4- CD8+ cell subset, relative percentage, MEAN ([1]; 50 mg/kg, second assay): 7.70
- CD4- CD8- cell subset, relative percentage, MEAN ([1]; 50 mg/kg, second assay): 71.20
- CD4- CD11b+ cell subset, relative percentage, MEAN ([1]; 50 mg/kg, second assay): 6.73
- CD4- CD11b- cell subset, relative percentage, MEAN ([1]; 50 mg/kg, second assay): 77.78
- CD45+ CD4+ cell subset, relative percentage, MEAN ([1]; 50 mg/kg, second assay): 18.48
- CD45+ CD4- cell subset, relative percentage, MEAN ([1]; 50 mg/kg, second assay): 68.23
- CD45+ CD8+ cell subset, relative percentage, MEAN ([1]; 50 mg/kg, second assay): 8.10
- CD45+ CD8- cell subset, relative percentage, MEAN ([1]; 50 mg/kg, second assay): 79.70
- CD45- CD4+ cell subset, relative percentage, MEAN ([1]; 50 mg/kg, second assay): 2.25
- CD45- CD4- cell subset, relative percentage, MEAN ([1]; 50 mg/kg, second assay): 11.05
- CD45- CD8+ cell subset, relative percentage, MEAN ([1]; 50 mg/kg, second assay): 0.03
- CD45- CD8- cell subset, relative percentage, MEAN ([1]; 50 mg/kg, second assay): 12.15
- Ly5(B) cell subset, relative percentage, MEAN ([1]; 50 mg/kg, second assay): 58.6
- NK+ CD3+ cell subset, relative percentage, MEAN ([1]; 50 mg/kg, second assay): 3.00
- NK+ CD3- cell subset, relative percentage, MEAN ([1]; 50 mg/kg, second assay): 7.88
- NK- CD3+ cell subset, relative percentage, MEAN ([1]; 50 mg/kg, second assay): 31.05
- NK- CD3- cell subset, relative percentage, MEAN ([1]; 50 mg/kg, second assay): 58.10
- TCR(T) cell subset, relative percentage, MEAN ([1]; 50 mg/kg, second assay): 35.73
- CD4+ CD8+ cell subset, relative percentage, MEAN ([1]; 100 mg/kg, first assay): 2.10
- CD4+ CD8- cell subset, relative percentage, MEAN ([1]; 100 mg/kg, first assay): 17.90
- CD4+ CD11b+ cell subset, relative percentage, MEAN ([1]; 100 mg/kg, first assay): 1.10
- CD4+ CD11b- cell subset, relative percentage, MEAN ([1]; 100 mg/kg, first assay): 20.30
- CD4- CD8+ cell subset, relative percentage, MEAN ([1]; 100 mg/kg, first assay): 6.03
- CD4- CD8- cell subset, relative percentage, MEAN ([1]; 100 mg/kg, first assay): 73.95
- CD4- CD11b+ cell subset, relative percentage, MEAN ([1]; 100 mg/kg, first assay): 11.03
- CD4- CD11b- cell subset, relative percentage, MEAN ([1]; 100 mg/kg, first assay): 67.65
- CD45+ CD4+ cell subset, relative percentage, MEAN ([1]; 100 mg/kg, first assay): 16.78
- CD45+ CD4- cell subset, relative percentage, MEAN ([1]; 100 mg/kg, first assay): 58.75
- CD45+ CD8+ cell subset, relative percentage, MEAN ([1]; 100 mg/kg, first assay): 7.10
- CD45+ CD8- cell subset, relative percentage, MEAN ([1]; 100 mg/kg, first assay): 63.45
- CD45- CD4+ cell subset, relative percentage, MEAN ([1]; 100 mg/kg, first assay): 3.25
- CD45- CD4- cell subset, relative percentage, MEAN ([1]; 100 mg/kg, first assay): 21.23
- CD45- CD8- cell subset, relative percentage, MEAN ([1]; 100 mg/kg, first assay): 28.38
- CD45- CDE8+ cell subset, relative percentage, MEAN ([1]; 100 mg/kg, first assay): 1.03
- Ly5(B) cell subset, relative percentage, MEAN ([1]; 100 mg/kg, first assay): 58.73
- NK+ CD3+ cell subset, relative percentage, MEAN ([1]; 100 mg/kg, first assay): 2.43
- NK+ CD3- cell subset, relative percentage, MEAN ([1]; 100 mg/kg, first assay): 6.00
- NK- CD3+ cell subset, relative percentage, MEAN ([1]; 100 mg/kg, first assay): 33.58
- NK- CD3- cell subset, relative percentage, MEAN ([1]; 100 mg/kg, first assay): 57.95
- TCR(T) cell subset, relative percentage, MEAN ([1]; 100 mg/kg, first assay): 32.23
- CD4+ CD8+ cell subset, relative percentage, MEAN ([1]; 100 mg/kg, second assay): 0.33
- CD4+ CD8- cell subset, relative percentage, MEAN ([1]; 100 mg/kg, second assay): 25.00
- CD4+ CD11b+ cell subset, relative percentage, MEAN ([1]; 100 mg/kg, second assay): 0.50
- CD4+ CD11b- cell subset, relative percentage, MEAN ([1]; 100 mg/kg, second assay): 21.58
- CD4- CD8+ cell subset, relative percentage, MEAN ([1]; 100 mg/kg, second assay): 6.80
